Test results from patent US20210221784A1, “COMPOUNDS AND COMPOSITIONS FOR THE TREATMENT OF PAIN” (Université de Strasbourg, priority 2018, published 2021).
Structures can show the parent of a compound that is named as a salt.

Columns and labels:
hNPFFR1 = target: T1, hNPFFR1 (Homo sapiens, UniProt Q9GZQ6); assay: Radioligand binding competition, membranes from CHO cells expressing hNPFFR1; conditions: 0.015 nM [D-Tyr1[125I], N-MePhe3]-NPFF, 1 hr at 25° C., read-out: NPFF1-R Ki
T1 construct: expressed in transfected cells; membranes
T1 sequence (Q9GZQ6 whole entry): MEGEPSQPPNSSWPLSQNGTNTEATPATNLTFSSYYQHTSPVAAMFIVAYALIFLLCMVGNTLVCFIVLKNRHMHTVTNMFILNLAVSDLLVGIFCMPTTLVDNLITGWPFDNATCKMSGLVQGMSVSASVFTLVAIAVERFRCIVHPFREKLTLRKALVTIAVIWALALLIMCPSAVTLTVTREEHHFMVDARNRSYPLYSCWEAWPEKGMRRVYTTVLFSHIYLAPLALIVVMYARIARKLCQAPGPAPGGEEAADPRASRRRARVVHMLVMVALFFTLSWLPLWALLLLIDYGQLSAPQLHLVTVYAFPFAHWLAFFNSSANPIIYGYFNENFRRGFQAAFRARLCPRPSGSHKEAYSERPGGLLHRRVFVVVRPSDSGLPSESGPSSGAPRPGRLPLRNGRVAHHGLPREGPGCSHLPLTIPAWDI
Protocol: Competition experiments with membranes from CHO cells stably expressing hNPFFR1 and hNPFFR2 were performed essentially as described in Elhabazi, K., et al. Neuropharmacology, 2013. 75C, 164-171., Briefly, hNPFFR1 or hNPFFR2 membranes (5 to 10 μg of proteins) were incubated (1 hr at 25° C.; 0.25 mL total volume) with 0.015 nM [D-Tyr1[125I], N-MePhe3]-NPFF (Hartmann Analytic GmbH) in 50 mM HEPES (pH 7.4), 1 mM CaCl2, 1 mM MgCl2 and 0.1% bovine serum albumin. Non-specific binding was determined in the presence of 10 μM RFRP-3. Incubation was terminated by rapid filtration through a 96-well GF/B unifilter apparatus (Perkin Elmer Life and Analytical Sciences, Courtaboeuf, France). Unifilters were washed five times with binding buffer, then dried for 1 h at 65° C. After addition of 40 μL scintillation cocktail (Microscint-O, Perkin Elmer) per well, bound radioactivity was determined on a TopCount scintillation counter (Perkin Elmer).

[1] = target: T2, human NPFFR1 (hNPFFR1) receptor (Homo sapiens, UniProt Q9GZQ6); assay: Human NPFFR1 evaluation using BRET biosensors in HEK-293 T cells; format: cell-based; conditions: hNPFFR1 in HEK-293 T cells, stimulated by EC80 RFRP-3, read-out: IC50 of antagonist activity
T2 construct: expressed in transfected cells; host or cells: HEK-293 T cells, transient co-transfection
T2 sequence (Q9GZQ6 whole entry): as above
Protocol: Compounds of the present invention were tested successively for their agonist and antagonist activities on human NPFFR1 (hNPFFR1) receptor transiently over-expressed in HEK-293 T cells. Compounds exert agonist activity if, by themselves in absence of neuropeptide RFRP-3 (also named NPVF) they activate hNPFFR1; and they exert antagonist activity if they decrease the action of RFRP-3 on the receptor. The assay used to measure compound activity is based on BRET (Bioluminescence Resonance Energy Transfer) biosensors and is designed to monitor the plasma membrane translocation of protein that interacts with specific Ga subunit. The specific effector (luciferase tagged: BRET donor) recruited at the membrane will be in close proximity to a plasma membrane anchor (GFP tagged: BRET acceptor) to induce a BRET signal (Ramdan et al, 2006, Chapter 5, Current Protocols in Neuroscience).
HEK-293 T cells are maintained in Dulbecco's Modified Eagle's Medium supplemented with 10% Foetal Calf Serum, 1% Penicillin/Streptomycin at 37° C./5% CO2. Cells are co-transfected using polyethylenimine (25 kDa linear) with four DNA plasmids encoding; hNPFFR1, GαoB, a Gi family specific intracellular effector fused to luciferase (BRET donor), a plasma membrane effector fused to GFP (BRET acceptor). After transfection, cells are cultured for 48 h at 37° C./5% CO2.
Receptor activity is detected by changes in BRET signal.
On the day of the assay, cells are detached using trypsin 0.05%, resuspended in assay buffer (1.8 mM CaCl2, 1 mM MgCl2, 2.7 mM KCl, 137 mM NaCl, 0.4 mM NaH2PO4, 5.5 mM D-Glucose, 11.9 mM NaHCO3, 25 mM Hepes) and seeded in 384 well plate at a density of 20,000 cells per well. Then, plates are equilibrated 3.5 hours at 37° C. before adding compounds.
Compounds and luciferase substrate are added to the cells using an automated device (Freedom Evo®, Tecan) and BRET readings are collected on EnVision (PerkinElmer) with specific filters (410 nm BW 80 nm, 515 nm BW 30 nm).
Agonist and antagonist activities of compounds are consecutively evaluated on the same cell plate. Agonist activity is first measured after 10 minutes incubation with compound alone on the cells. Then, cells are stimulated by an EC80 RFRP-3 concentration and luminescence is recorded for additional 10 minutes. EC80 RFRP-3 concentration is the concentration giving 80% of the maximal RFRP-3 response. Agonist or antagonist activities are evaluated in comparison to basal signals evoked by assay buffer or EC80 RFRP-3 alone, respectively.
For IC50 determination, a dose-response test is performed using 20 concentrations (ranging over 6 logs) of each compound. Dose-response curves are fitted using the sigmoidal dose-response (variable slope) analysis in GraphPad Prism software (GraphPad Software) and IC50 of antagonist activity is calculated. Dose-response experiments are performed in duplicate, in two independent experiments.

Structure (SMILES)	melting point [°C]	other results
Nc1ccc(-c2cccc(Cl)c2Cl)c(C(F)(F)F)n1 [Compound 34, 5-(2,3-Dichloro-phenyl)-6-trifluoromethyl-pyridin-2-ylamine]	165 to 170	
Cc1cc(N)nc(C)c1-c1cccc(Cl)c1Cl [Compound 28, 5-(2,3-Dichloro-phenyl)-4,6-dimethyl-pyridin-2-ylamine]	140 to 145	
Nc1ccc(-c2ccc(N3CCOCC3)nc2)c(N)n1 [Compound 78, 3-(6-morpholino-3-pyridyl)pyridine-2,6-diamine]	201 to 205	
Nc1ccc(-c2cccc(Cl)c2Cl)c(F)n1 [Compound 33, 5-(2,3-Dichloro-phenyl)-6-fluoro-pyridin-2-ylamine]	139 to 144	
COc1ccccc1-c1cnc(N)cc1OCC(F)(F)F.Cl	238 to 240	
Nc1ccc(-c2cccnc2)c(N)n1 [Compound 3e, [3,3′-bipyridine]-2,6-diamine]		Ki (hNPFFR1): 1930 nM
CNc1ccc(-c2ccc(N)nc2N)cn1 [Compound 80, 3-[6-(methylamino)-3-pyridyl]pyridine-2,6-diamine]	178 to 182	
Nc1ccc(-c2ccccc2Oc2ccccc2)c(N)n1 [Compound 43, 3-(2-Phenoxy-phenyl)-pyridine-2,6-diamine]		IC50 [1]: 100 to 500 nM
COc1ccccc1-c1cnc(N)cc1C [Compound 21, 5-(2-Methoxy-phenyl)-4-methyl-pyridin-2-ylamine]	85 to 88	
Nc1ccc(-c2ccc(N)nc2N)cn1 [Compound 82, 3-(6-amino-3-pyridyl)pyridine-2,6-diamine]	220 to 240	
CN(C)c1ccccc1-c1ccc(N)nc1N [Compound 61, 3-(2-Dimethylamino-phenyl)-pyridine-2,6-diamine]		IC50 [1]: 100 to 500 nM
COc1ccccc1-c1cnc(N)cc1OCCN.Cl	218 to 224	
COc1ccncc1-c1ccc(N)nc1N [Compound 88, 3-(4-methoxy-3-pyridyl)pyridine-2,6-diamine]		IC50 [1]: > 1000 nM
COc1ccccc1-c1cnc(N)c(F)c1 [Compound 15, 3-Fluoro-5-(2-methoxy-phenyl)-pyridin-2-ylamine]	75 to 79	
CN(C)c1ccc(-c2ccc(N)nc2N)c2ccccc12.Cl	175 to 181	
Nc1ccc(-c2cnc(N)c(C(F)(F)F)c2)c(N)n1 [Compound 83, 3-[6-amino-5-(trifluoromethyl)-3-pyridyl]pyridine-2,6-diamine]	154 to 155	
CCc1nc(N)ccc1-c1cccc(Cl)c1C [Compound 29, 5-(3-chloro-2-methyl-phenyl)-6-ethyl-pyridin-2-ylamine]		IC50 [1]: 100 to 500 nM
Nc1ccc(-c2ccccc2OC2CC2)c(N)n1 [Compound 48, 3-(2-Cyclopropoxy-phenyl)-pyridine-2,6-diamine]		IC50 [1]: 100 to 500 nM
Nc1ccc(-c2ccccc2C2CC2)c(N)n1 [Compound 42, 3-(2-Cyclopropyl-phenyl)-pyridine-2,6-diamine]		IC50 [1]: < 100 nM
COc1ccccc1-c1cnc(N)c(C(F)(F)F)c1 [Compound 14, 5-(2-Methoxy-phenyl)-3-trifluoromethyl-pyridin-2-ylamine]	63 to 67	
Nc1ccc(-c2ccc(Cl)cc2OC2CCCC2)c(N)n1 [Compound 47, 3-(4-Chloro-2-cyclopentyloxy-phenyl)-pyridine-2,6-diamine]		IC50 [1]: 500 to 1000 nM
NCCOc1nc(N)ccc1-c1cccc(Cl)c1Cl (as salt: hydrochloride) [Compound 38, 6-(2-Amino-ethoxy)-5-(2,3-dichloro-phenyl)-pyridin-2-ylamine]	183 to 190	

Structure (SMILES)	melting point [°C]	other results
Nc1ccc(-c2ccc(N3CCCCC3)nc2)c(N)n1 [Compound 79, 3-[6-(1-piperidyl)-3-pyridyl]pyridine-2,6-diamine]	155 to 159	
Nc1ccc(-c2ccccc2Cc2ccccc2)c(N)n1 [Compound 44, 3-(2-Benzyl-phenyl)-pyridine-2,6-diamine]		IC50 [1]: 100 to 500 nM
COc1ccccc1-c1cnc(N)c(C)c1 [Compound 13, 5-(2-Methoxy-phenyl)-3-methyl-pyridin-2-ylamine]	92 to 95	
Nc1ncc(-c2cccc(Cl)c2Cl)cc1F [Compound 16, 5-(2,3-Dichloro-phenyl)-3-fluoro-pyridin-2-ylamine]	130 to 136	
Cl.Nc1cc(OCC(F)(F)F)c(-c2cccc(Cl)c2Cl)cn1	> 250	
Nc1ccc(-c2cc(Cl)ccc2C2CC2)c(N)n1 [Compound 55, 3-(5-Chloro-2-cyclopropyl-phenyl)-pyridine-2,6-diamine]		IC50 [1]: 100 to 500 nM
Nc1ccc(-c2ccncc2)c(N)n1 [Compound 3d, [3,4′-bipyridine]-2,6-diamine]		Ki (hNPFFR1): 5390 nM
Cc1n[nH]c(C)c1-c1ccc(N)nc1N [Compound 90, 3-(3,5-dimethyl-1H-pyrazol-4-yl)pyridine-2,6-diamine]	> 250	
COc1ccccc1-c1ccc(N)nc1OC [Compound 35, 6-Methoxy-5-(2-methoxy-phenyl)-pyridin-2-ylamine]	85 to 87	
COc1cccc(OC(C)C)c1-c1ccc(N)nc1N [Compound 39, 3-(2-Isopropoxy-6-methoxy-phenyl)-pyridine-2,6-diamine]		IC50 [1]: > 1000 nM
Nc1ccc(-c2ccccc2OC(F)(F)F)c(N)n1 [Compound 2c, 3-(2-(trifluoromethoxy)phenyl) pyridine-2,6-diamine]		IC50 [1]: 500 to 1000 nM; Ki (hNPFFR1): 34 nM
COc1ccccc1-c1cnc(N)cc1F [Compound 18, 4-Fluoro-5-(2-methoxy-phenyl)-pyridin-2-ylamine]	65 to 70	
CC(=O)Nc1ccccc1-c1ccc(N)nc1N [Compound 62, N-[2-(2,6-Diamino-pyridin-3-yl)-phenyl]-acetamide]	60 to 70	
Nc1cc(F)c(-c2cccc(Cl)c2Cl)cn1 [Compound 17, 5-(2,3-Dichloro-phenyl)-4-fluoro-pyridin-2-ylamine]	107 to 112	
Nc1ccc(-c2cccnc2F)c(N)n1 [Compound 87, 3-(2-fluoro-3-pyridyl)pyridine-2,6-diamine]	184 to 188	
COc1cc(N)ncc1-c1cccc(Cl)c1Cl.Cl	> 250	
COc1ccccc1-c1ccc(N)nc1OCCN [Compound 37, 6-(2-Amino-ethoxy)-5-(2-methoxy-phenyl)-pyridin-2-ylamine]	197 to 203	
COc1ccccc1-c1cnc(N)cc1OC [Compound 20, 4-Methoxy-5-(2-methoxy-phenyl)-pyridin-2-ylamine]	140 to 144	
Nc1ccc(-c2ccccc2)c(N)n1 [Compound 1a, 3-phenylpyridine-2,6-diamine]		IC50 [1]: > 1000 nM; Ki (hNPFFR1): 188 nM
COc1ccccc1-c1ccc(N)nc1F [Compound 32, 6-Fluoro-5-(2-methoxy-phenyl)-pyridin-2-ylamine]	175 to 178	
Cc1c(Cl)cccc1-c1cc(F)c(N)nc1N [Compound 66, 3-(3-Chloro-2-methyl-phenyl)-5-fluoro-pyridine-2,6-diamine]	128 to 135	
